The results in this text go back to patent publication US9855205B2, “Use of zinc coceth sulfate as an antibacterial agent against propionibacterium acnes” (PIERRE FABRE DERMO-COSMETIQUE, priority 2012, dated 2018).

Data set [1] concerns Propionibacterium acnes ATCC6919. The data set is described as follows: Evaluation of the bactericidal activity against P. acnes (log reduction over contact time). It counts as cell-based. The settings on record: Zetesol Zn at 20% (5% active zinc coceth sulfate). How it is done: The reduction over time of the log 10 of the number of germs in relation to initial number of germs (log R parameter) is evaluated.
The strain tested is Propionibacterium acnes ATCC6919.
Zetesol Zn® was tested at the concentration of 20% (i.e. 5% of active ingredient zinc coceth sulfate).
Method • placing into contact of the product to be tested with suspensions of P. acnes titrated at about 10^6 CFU/ml for 1, 5, 10 and 15 minutes. • Viable count after each duration of contact by inclusion of 1 ml of the sample in a culture agar (Columbia) • Incubation 72 hours at 36° C. in anaerobic conditions • Viable count of residual bacteria via direct counting.
Calculation of the fall in log 10:
The calculation of the fall in log 10 of the number of CFU/ml is carried out according to the formula hereinbelow: Logarithmic reduction=LOG 10(number of CFU present at TO/number of CFU remaining at Tx)
The results indicated in table 1 are the average of two independent tests (except for the duration of 10 min where only 1 test was carried out). Also see FIG. 1. […]

Data set [2] relates to chorio-allantoic membrane of an embryonated chicken egg. The data set can be described thus: Het Cam test (tolerance on the mucosa). Conditions: 1% solution, irritant effects within five minutes, tenth day of incubation. How it is done:
Zinc coceth was tested in a 1% solution.

The nature of data set [3]: Irritant and sensitising potential.
A short description of data set [4]: pH of zinc coceth sulfate. It counts as physicochemical.

With Zinc coceth sulfate [Zetesol ® Zn], the “Log Reduction in 1 minute” value in data set [1] (contact 1 min, average of two tests) turned out to be 0.63 log. Besides, the “Log Reduction in 5 minutes” value in data set [1] (contact 5 min, average of two tests) came out at 2.06 log. The “Log Reduction in 10 minutes” value in data set [1] (contact 10 min, only 1 test) was 3.65 log. Besides, in data set [1] (contact 15 min, average of two tests), the “Log Reduction in 15 minutes” value is listed as over 5.04 log. Moreover, in data set [2], the “tolerance on the mucosa” value was “good tolerance on the mucosa”. In addition, in data set [3], the “irritant and sensitising potential” value is “devoid of any irritant and sensitising potential”. Also, in data set [4], the pH worked out at 4.5.
